The values below come from patent US20260125371A1, “METHOD FOR INHIBITING CLOSTRIDIOIDES DIFFICILE SPORE GERMINATION” (UNIVERSITY OF NOTRE DAME DU LAC, priority 2022, published 2026).

Each structure is given as a SMILES string. Values after ≈ are worked out from the molar mass of the structure shown. Where two headings read alike, the source gives them in different places.

This assay concerns C. difficile ATCC 43255. The assay can be described thus: Determination of minimal-inhibitory concentrations (microdilution), C. difficile ATCC 43255. It is filed as cell-based, Clostridioides difficile. The conditions noted are these: for MIC: Clostridioides difficile.
The mark [1] stands for this setting: ATCC43255, 24 h, C. difficile ATCC 43255, 24 h, read-out: MIC (μg/mL) 24 h.
[2] abbreviates: ATCC43255, 48 h, C. difficile ATCC 43255, 48-h incubation, read-out: MIC (μg/mL) 48 h.
The mark [3] stands for this setting: C. difficile ATCC 43255, 48-h incubation.

Consider `FC(F)(F)c1ccc(Oc2ccc(-c3noc(-c4ccncc4)n3)cc2)cc1` [Compound 23, 5-(Pyridin-4-yl)-3-(4-(4-(trifluoromethyl)phenoxy)phenyl)-1,2,4-oxadiazole], for which the MIC is over 128 µg/mL under setting [1] and over 128 µg/mL under setting [2].
For `FC(F)(F)c1ccc(Oc2ccc(-c3noc(-c4cn[nH]c4)n3)cc2)cc1` [Compound 33, 5-(1H-Pyrazol-4-yl)-3-(4-(4-(trifluoromethyl)phenoxy)phenyl)-1,2,4-oxadiazole], the MIC by setting is: under setting [1], over 128 µg/mL; under setting [2], over 128 µg/mL.
`FC(F)(F)c1ccc(Oc2ccc(-c3noc(-c4cc5ccccc5[nH]4)n3)cc2)cc1` [Compound 48, 5-(1H-Indol-2-yl)-3-(4-(4-(trifluoromethyl)phenoxy)phenyl)-1,2,4-oxadiazole]: the MIC runs as follows: under setting [1], over 128 µg/mL; under setting [2], over 128 µg/mL.
As for `O=[N+]([O-])c1ccc(-c2nc(-c3ccc(OC4CCCC4)cc3)no2)cc1` [Compound 50, 3-(4-(Cyclopentyloxy)phenyl)-5-(4-nitrophenyl)-1,2,4-oxadiazole], under setting [3], the “MIC (μg/mL) 48 h” value was over 128 µg/mL. Also, under setting [1], the MIC is over 128 µg/mL.
Turning to `c1nc2ccc(-c3nc(-c4ccc(OC5CCCC5)cc4)no3)cc2[nH]1` [Compound 55, 5-(1H-Benzo[d]imidazol-6-yl)-3-(4-(cyclopentyloxy)phenyl)-1,2,4-oxadiazole], the “MIC (μg/mL) 48 h” value under setting [3] came out at 128 µg/mL (≈ 370 µM). Also, the MIC was 128 µg/mL (≈ 370 µM) under setting [1] and over 128 µg/mL under setting [2].
For the compound `c1cc2cc(-c3nc(-c4ccc(OC5CCCC5)cc4)no3)ccc2[nH]1` [Compound 56, 3-(4-(Cyclopentyloxy)phenyl)-5-(1H-indol-5-yl)-1,2,4-oxadiazole], under setting [3], the “MIC (μg/mL) 48 h” value was over 128 µg/mL. Moreover, the MIC runs as follows: under setting [1], over 128 µg/mL; under setting [2], over 128 µg/mL.
Regarding `O=[N+]([O-])c1cn(CCO)c(-c2nc(-c3ccc(OC4CCCC4)cc3)no2)n1` [Compound 58, 3-(4-(Cyclopentyloxy)phenyl)-5-(1-(2-hydroxyethyl)-4-nitro-1H-imidazol-2-yl)-1,2,4-oxadiazole], the “antibacterial activity against C. difficile (in words)” value (C. difficile ATCC43255) is recorded as “lost activity”. For the same compound, the MIC under setting [1] was over 128 µg/mL and the MIC under setting [2] was over 128 µg/mL.
Consider `Cn1c(-c2nc(-c3ccc(OC4CCCC4)cc3)no2)cnc1[N+](=O)[O-]` [Compound 59, 3-(4-(Cyclopentyloxy)phenyl)-5-(1-methyl-2-nitro-1H-imidazol-5-yl)-1,2,4-oxadiazole], for which the MIC under setting [1] came out at 32 µg/mL (≈ 90.1 µM).
As for `C[C@@H](NC(=O)OC(C)(C)C)c1nc(-c2ccc(OC3CCCC3)cc2)no1` [Compound 60, tert-Butyl (R)-(1-(3-(4-(cyclopentyloxy)phenyl)-1,2,4-oxadiazol-5-yl)ethyl) carbamate], the “MIC (μg/mL) 48 h” value under setting [3] was over 128 µg/mL. Also, the “MIC (μg/mL) 24 h” value (C. difficile ATCC 43255, 24 h) is over 128 µg/mL.
`C[C@@H](N)c1nc(-c2ccc(OC3CCCC3)cc2)no1` [Compound 61, (R)-1-(3-(4-(Cyclopentyloxy)phenyl)-1,2,4-oxadiazol-5-yl) ethan-1-amine]: the MIC is, setting by setting: under setting [1], over 128 µg/mL; under setting [2], over 128 µg/mL.
As for `C[C@@H](NC(=O)OC(C)(C)C)C(=O)N[C@H](C)c1nc(-c2ccc(OC3CCCC3)cc2)no1` [Compound 62, 5-((R)-1-((R)-2-(Boc-amino)propanamido)ethyl)-3-(4-(cyclopentyloxy)phenyl)-1,2,4-oxadiazole], the MIC by setting is: under setting [1], over 128 µg/mL; under setting [2], over 128 µg/mL.
For the compound `Oc1ccc(Cc2nc(-c3ccc(OC4CCCC4)cc3)no2)cc1` [Compound 63, 3-(4-(Cyclopentyloxy)phenyl)-5-(4-hydroxybenzyl)-1,2,4-oxadiazole], the MIC runs as follows: under setting [1], 8 µg/mL (≈ 23.8 µM); under setting [2], 16 µg/mL (≈ 47.6 µM).
As for `Oc1ccc(Nc2nc(-c3ccc(OC4CCCC4)cc3)no2)cc1` [Compound 64, 4-((3-(4-(Cyclopentyloxy)phenyl)-1,2,4-oxadiazol-5-yl)amino)phenol], the MIC runs as follows: under setting [1], 16 µg/mL (≈ 47.4 µM); under setting [2], 32 µg/mL (≈ 94.8 µM).
For `Oc1cccc(/C=C/c2nc(-c3ccc(OC4CCCC4)cc3)no2)c1` [Compound 65, 3-(4-(Cyclopentyloxy)phenyl)-(E)-5-(3-hydroxystyryl)-1,2,4-oxadiazole] the same measures were over 128 µg/mL and over 128 µg/mL.
`Oc1ccc(/C=C/c2nc(-c3ccc(OC4CCCC4)cc3)no2)cc1` [Compound 66, 3-(4-(Cyclopentyloxy)phenyl)-(E)-5-(4-hydroxystyryl)-1,2,4-oxadiazole]: the MIC runs as follows: under setting [1], 32 µg/mL (≈ 91.8 µM); under setting [2], 64 µg/mL (≈ 184 µM).
For `Nc1nc(-c2ccc(OC3CCCC3)cc2)no1` [Compound 68, 3-(4-(Cyclopentyloxy)phenyl)-1,2,4-oxadiazol-5-amine] the same measures were over 128 µg/mL and over 128 µg/mL.
For `O=c1[nH]c(-c2ccc(OC3CCCC3)cc2)no1` [Compound 69, 3-(4-(Cyclopentyloxy)phenyl)-1,2,4-oxadiazol-5 (4H)-one] the same measures were 64 µg/mL (≈ 260 µM) and 64 µg/mL (≈ 260 µM).
`Clc1nc(-c2ccc(OC3CCCC3)cc2)no1` [Compound 70, 5-Chloro-3-(4-(cyclopentyloxy)phenyl)-1,2,4-oxadiazole]: the MIC was over 128 µg/mL under setting [1] and over 128 µg/mL under setting [2].
With `Oc1ccc(-c2nc(-c3ccc(OC4CCCC=C4Br)cc3)no2)cc1` (stereo not shown) [Compound 78, 4-(3-(4-((2-Bromocyclohex-2-en-1-yl)oxy)phenyl)-1,2,4-oxadiazol-5-yl)phenol], the “MIC (μg/mL) 48 h” value under setting [3] is over 128 µg/mL. Besides, the MIC is, setting by setting: (ATCC43255, 24 h, read-out: MIC (μg/mL) 24 h) over 128 µg/mL; (ATCC43255, 48 h, read-out: MIC (μg/mL) 48 h) over 128 µg/mL.
On to `Oc1ccc(-c2nc(-c3ccc(Oc4ccccc4)c(Br)c3)no2)cc1` [Compound 79, 4-(3-(3-Bromo-4-phenoxyphenyl)-1,2,4-oxadiazol-5-yl)phenol], for which the “MIC (μg/mL) 48 h” value under setting [3] is over 128 µg/mL. Moreover, under setting [1], the MIC is over 128 µg/mL.
Regarding `C#CCOc1ccc(-c2noc(-c3ccc(O)cc3)n2)cc1` [Compound 88, 4-(3-(4-(Prop-2-yn-1-yloxy)phenyl)-1,2,4-oxadiazol-5-yl)phenol], the MIC by setting is: under setting [1], 16 µg/mL (≈ 54.7 µM); under setting [2], 128 µg/mL (≈ 438 µM).
For `C#CCCOc1ccc(-c2noc(-c3ccc(O)cc3)n2)cc1` [Compound 89, 4-(3-(4-(But-3-yn-1-yloxy)phenyl)-1,2,4-oxadiazol-5-yl)phenol] the same measures were over 128 µg/mL and over 128 µg/mL.
For `COC(OC)c1ccc(-c2noc(-c3ccc(O)cc3)n2)cc1` [Compound 106, 4-(3-(4-(Dimethoxymethyl)phenyl)-1,2,4-oxadiazol-5-yl)phenol], the MIC is, setting by setting: under setting [1], 64 µg/mL (≈ 205 µM); under setting [2], over 128 µg/mL.
Regarding `O=Cc1ccc(-c2noc(-c3ccc(O)cc3)n2)cc1` [Compound 107, 4-(5-(4-Hydroxyphenyl)-1,2,4-oxadiazol-3-yl)benzaldehyde], the MIC by setting is: under setting [1], 64 µg/mL (≈ 240 µM); under setting [2], over 128 µg/mL.
On to `Oc1ccc(-c2nc(-c3ccc(C(O)C(F)(F)F)cc3)no2)cc1` (stereo not shown) [Compound 108, 4-(3-(4-(2,2,2-Trifluoro-1-hydroxyethyl)phenyl)-1,2,4-oxadiazol-5-yl)phenol], for which the MIC turned out to be 32 µg/mL (≈ 95.2 µM) under setting [1] and 32 µg/mL (≈ 95.2 µM) under setting [2].
In the case of `O=C(c1ccc(-c2noc(-c3ccc(O)cc3)n2)cc1)C(F)(F)F` [Compound 109, 5-(4-Hydroxyphenyl)-3-(4-(2,2,2-trifluoroacetyl)phenyl)-1,2,4-oxadiazole], the MIC under setting [1] was 8 µg/mL (≈ 23.9 µM) and the MIC under setting [2] was determined as 8 µg/mL (≈ 23.9 µM).
With `Fc1ccc2oc3ccc(-c4noc(-c5ccc6[nH]ccc6c5)n4)cc3c2c1` [Compound 121, 3-(8-Fluorodibenzo[b,d]furan-2-yl)-5-(1H-indol-5-yl)-1,2,4-oxadiazole], the MIC runs as follows: under setting [1], over 128 µg/mL; under setting [2], over 128 µg/mL.
Turning to `Fc1ccccc1-c1noc(-c2ccc3[nH]ccc3c2)n1` [Compound 125, 3-(2-Fluorophenyl)-5-(1H-indol-5-yl)-1,2,4-oxadiazole], the MIC is over 128 µg/mL under setting [1] and over 128 µg/mL under setting [2].
Turning to `O=[N+]([O-])c1ccc(-c2noc(-c3ccc4[nH]ccc4c3)n2)cc1` [Compound 126, 5-(1H-Indol-5-yl)-3-(4-nitrophenyl)-1,2,4-oxadiazole], the MIC runs as follows: under setting [1], over 128 µg/mL; under setting [2], over 128 µg/mL.
As to `c1cc2cc(-c3nc(-c4ccc5c(c4)CCN5)no3)ccc2[nH]1` [Compound 129, 5-(1H-Indol-5-yl)-3-(indolin-5-yl)-1,2,4-oxadiazole], the MIC by setting is: under setting [1], over 128 µg/mL; under setting [2], over 128 µg/mL.
In the case of `CN1CCC(Oc2ccc(-c3noc(-c4ncc([N+](=O)[O-])[nH]4)n3)cc2)C1.Cl` (stereo not shown) [Compound 132, 3-(4-((1-Methylpyrrolidin-3-yl)oxy)phenyl)-5-(5-nitro-1H-imidazol-2-yl)-1,2,4-oxadiazole hydrochloride], the MIC reads like this: under setting [1], over 128 µg/mL; under setting [2], over 128 µg/mL.
With `CC(C)(C)OC(=O)N1CCC(Oc2ccc(-c3noc(-c4ncc([N+](=O)[O-])[nH]4)n3)cc2)CC1` [Compound 133, 3-(4-((1-(tert-Butoxycarbonyl)piperidin-4-yl)oxy)phenyl)-5-(5-nitro-1H-imidazol-2-yl)-1,2,4-oxadiazole], the MIC by setting is: under setting [1], over 128 µg/mL; under setting [2], over 128 µg/mL.
As to `Cl.O=[N+]([O-])c1c[nH]c(-c2nc(-c3ccc(OC4CCNCC4)cc3)no2)n1` [Compound 134, 5-(4-Nitro-1H-imidazol-2-yl)-3-(4-(piperidin-4-yloxy)phenyl)-1,2,4-oxadiazole hydrochloride], the MIC by setting is: under setting [1], over 128 µg/mL; under setting [2], over 128 µg/mL.
In the case of `O=C(NNC(=O)c1ccc(OC2CCCC2)cc1)c1ccc(O)cc1` [Compound 138, 4-(Cyclopentyloxy)-N′-(4-hydroxybenzoyl)benzohydrazide], the MIC is over 128 µg/mL under setting [1] and over 128 µg/mL under setting [2].
With `Oc1ccc(-c2nnc(-c3ccc(OC4CCCC4)cc3)o2)cc1` [Compound 139, 4-(5-(4-(Cyclopentyloxy)phenyl)-1,3,4-oxadiazol-2-yl)phenol], under setting [3], the “MIC (μg/mL) 48 h” value was over 128 µg/mL. Also, the MIC under setting [1] was over 128 µg/mL.
